Data set [1] deals with E. coli ATCC 25922. The conditions noted are these: ref Czihal et al., 2012, cited from earlier work. The source says:
Antimicrobial peptides (AMPs) are considered as promising alternatives to common antibiotics that threateningly lose their therapeutic potentials against multidrug-resistant pathogens (Fox, [2013]; Wang et al., [2015]). In contrast to approved therapeutic peptide hormones, antimicrobial peptides have to be administered at much higher doses, which may amplify general drawbacks of peptide therapeutics. […] Api137 appeared more efficient in this septicemia model due to the better scores obtained at ... || Apidaecin analogs Api88 and Api137 are similarly active against Gram-negative bacteria with a tendency of higher activity of Api88 against K. pneumoniae (Czihal et al., [2012]; Berthold et al., [2013]). However, Api88 carries a C-terminal amide that is responsible for its very fast proteolytic cleavage in serum, the supernatant obtained after complete coagulation and centrifugation of blood. The in vitro serum stability assay, which is an important in vitro criterion to select therapeutic peptides for systemic applications, yielded very short half-life times of 5 min for Api88, which indicate ...

The nature of data set [2]: Acute toxicity, intraperitoneal administration. It is filed as in vivo, NMRI mice. Here is the method:
(§1) The acute toxicity of Api137 was studied by administering doses of 20, 40, 80, and 120 mg/kg intraperitoneally (i.p.) four times daily (0, 3, 7, and 24 h) into female NMRI mice (24–32 g, ~7 weeks old). For in vivo efficacy, female NMRI mice (high dose experiment: 24–27.1 g, 6 weeks; low dose experiment: 26.8–30.3 g, 7 weeks) were infected intraperitoneal with E. coli ATCC 25922, as described before (Czihal et al., [2012]; Knappe et al., [2012]). Briefly, each mouse was infected with 9 × 10^5 bacteria in the presence of 2.5% (w/v) mucin (0.3 mL in total). Mucin restricts acute macrophage activation in the intraperitoneal space and promotes establishment of a reproducible infection (Frimodt-Møller et al., [1999]). Mice were observed three times daily for their health status for a total of 5 days post-infection and weighed 1 day before and 1 and 5 days after infection. In accordance with the guidelines of the Animal Care and Usage Committee of the Landesdirektion Leipzig, moribund mice were euthanized.

For data set [3], the system named is E. coli ATCC 25922. The data set can be described thus: Systemic septicemia infection mouse model (lethal intraperitoneal E. coli infection). It is filed as in vivo, NMRI mice. The procedure:
as §1
Apidaecin Api137 (high dose experiment: 2.5 and 1.25 mg/kg body weight; low dose experiment: 0.6 and 0.3 mg/kg body weight) was administered intraperitoneal (0.3 mL) in seven mice per group three times post-infection (1, 4, and 8 h) as antibacterial therapy. Each experiment included seven mice receiving ciprofloxacin (40 mg/kg body weight) and four mice receiving only the vehicle (5% glucose in water, w/v) as positive and negative controls, respectively.

Data set [4] in a line: Peptide recovery in spiked blood and organ homogenates. It is filed as in vitro ADME, NMRI mice. The conditions noted are these: LC-MS MRM, mean n = 3. Here is the method: plasma samples and organ homogenates relative to equally concentrated peptide solutions in pure w ater. Concentrations of samples below the LOQ but still detectable were set to the value of the LOD, whereas signals with peak hei ghts below the LOD were set to 0 µg/m L.
Method M3: Recovery rates in plasma and organ homogenates
Li -heparin blood samples obtained from untreated NMRI mice were spiked with Api88 or Api137 (final concentrations: 2.5 or 10 µ g/ m L), incubated (10 min, RT), and centrifuged (2,000x g, 3 min, RT) to obtain plasma. […]
500 µ L, 0.2 or 2 µg/m L, l iver: 500 µ L, 1 or 2.5 µ g/m L, kidne ys: 500 µ L, 20 or 60 µg/m L). […] Recoveries were calculated b y assumin g a total blood (plasma) volume of 75 (25) m L per k g mouse weight 3 and that the measured organ weight (in g) corresponds to the organ volume (in m L). […]
Apidaecin peptides were selectively and sensitively quantified based on the methods established for oncocins Onc72 and Onc112 (Sch midt R. et al J AC 2016). […]
Table S12. Recover y rates of Api88 and Api137 determined in plasma and organ homogenates (n = 3) collected from untreated NMRI mice. […]
500 µ L, 1 or 2.5 µg/m L, kidneys: 500 µ L, 20 o r 60 µg/m L) were added p rior to homogenization and centrifugation. […] The total peptide amount in mice was calculated from the recover y rates shown […]

Usually ED50 stands for the dose that gives a 50% effect, or the effect in half of the subjects.

Entries after “also recorded” stand apart in the source; their conditions may differ. Where two headings read alike, the source gives them in different places. Where a SMILES comes first, the peptide text is derived from it. The star is where a group is joined. Orn(α-tetramethylguanidino) = CN(C)C(=N[C@@H](CCCN)C(=O)*)N(C)C

`CC[C@H](C)[C@H](NC(=O)[C@H](Cc1ccc(O)cc1)NC(=O)[C@@H](NC(=O)[C@@H]1CCCN1C(=O)[C@H](CCCNC(=N)N)NC(=O)[C@H](CC(N)=O)NC(=O)[C@H](CC(N)=O)NC(=O)[C@H](CCCN)N=C(N(C)C)N(C)C)C(C)C)C(=O)N1CCC[C@H]1C(=O)N[C@@H](CCCNC(=N)N)C(=O)N1CCC[C@H]1C(=O)N[C@@H](CCCNC(=N)N)C(=O)N1CCC[C@H]1C(=O)N1CCC[C@H]1C(=O)N[C@@H](Cc1c[nH]cn1)C(=O)N1CCC[C@H]1C(=O)N[C@@H](CCCNC(=N)N)C(=O)N[C@@H](CC(C)C)C(N)=O` [Api88] ({Orn(α-tetramethylguanidino)}-NNRPVYIPRPRPPHPRL-NH2): in data set [1] (2.5 and 1.25 mg/kg i.p.), the Survival result is given as “rescued all NMRI mice”. The “Dose rescuing all mice” value in data set [1] (same infection model) was 1.25 mg/kg.
As to `CC[C@H](C)[C@H](NC(=O)[C@H](Cc1ccc(O)cc1)NC(=O)[C@@H](NC(=O)[C@@H]1CCCN1C(=O)[C@H](CCCNC(=N)N)NC(=O)[C@H](CC(N)=O)NC(=O)[C@H](CC(N)=O)NC(=O)[C@H](CCCN)N=C(N(C)C)N(C)C)C(C)C)C(=O)N1CCC[C@H]1C(=O)N[C@@H](CCCNC(=N)N)C(=O)N1CCC[C@H]1C(=O)N[C@@H](CCCNC(=N)N)C(=O)N1CCC[C@H]1C(=O)N1CCC[C@H]1C(=O)N[C@@H](Cc1c[nH]cn1)C(=O)N1CCC[C@H]1C(=O)N[C@@H](CCCNC(=N)N)C(=O)N[C@@H](CC(C)C)C(=O)O` [Api137] ({Orn(α-tetramethylguanidino)}-NNRPVYIPRPRPPHPRL-OH), the Adverse side effects entry in data set [2] (120 mg/kg per injection i.p. four times (0, 3, 7, 24 h)) is “signs of discomfort in some animals and decreased mobility for up to 20 min after administration”; in data set [2] (20, 40 and 80 mg/kg per injection i.p. four times (0, 3, 7, 24 h), seven animals per dose group) it was “none of the seven animals per dose group showed any signs of adverse side effects”. Also, the Survival result in data set [2] (120 mg/kg per injection i.p. four times, observation period 5 days) was “all mice survived”; in data set [3] (0.3 mg/kg i.p. three times post-infection (1, 4, 8 h), n = 7), “four out of seven mice”; in data set [3] (0.6 mg/kg (and higher) i.p. three times post-infection (1, 4, 8 h), n = 7, 5 days observation) it was “rescued all NMRI mice; also recorded: rescuing all animals”. For the same molecule, the “Dose rescuing all mice” value in data set [3] (i.p. three times post-infection) amounted to 0.6 mg/kg. In data set [3] (i.p. three times post-infection (1, 4, 8 h), approximate), this molecule gave a 50% effective dose (ED50) of around 0.3 mg/kg. The “Recovery rate, Kidney, low concentration” value in data set [4] (peptide 20 µg/mL in 500 µL PBS with protease inhibitor added prior to homogenization) is on record as 3.5 ± 0.4%. The “Recovery rate, Kidney, high concentration” value in data set [4] (peptide 60 µg/mL in 500 µL PBS with protease inhibitor added prior to homogenization) came to 2.7 ± 0.7%.

These data come from article PMC5357639 (Frontiers in Chemistry, 2017).
